The values below are quoted from earlier work in patent US20090017243A1, “Conveyor lubricant, passivation of a thermoplastic container to stress cracking and thermoplastic stress crack inhibitor” (Ecolab Inc., priority 1999, published 2009).

The conditions of this data set: 96 wt. % solution of glycerol in water.

As to `OCC(O)CO` [glycerol], the specific gravity was 1.25.
